Results on five compounds are retold here after paper PMC3793852 (Journal of medicinal chemistry, 2013).

Series [1] concerns L1210 (ATCC CCL-219) mouse lymphocytic leukemia cells. As to the kind of experiment: Cell growth inhibition assay. The format is cell-based. Conditions: for fold less active than duocarmycin SA (loss in activity): L1210, relative to duocarmycin SA.
Another series in a line: PAMPA assay. The format is in vitro ADME. Particulars: for Papp at 5 h, 1 μM: pH 7.4. Background: In PAMPA a lipid-coated filter parts donor from acceptor wells.

What is called IC50 is the midpoint of a concentration-inhibition curve. The term Papp denotes a coefficient for how fast a substance crosses the barrier. A low value points to slow passage.

SMILES strings stand for the structures.

On to `COCCOc1cc2cc(C(=O)N3C[C@@H](CCl)c4c3cc(O)c3[nH]c(C(=O)OC)cc43)[nH]c2c(OCCOC)c1OCCOC` [10a], for which the “fold less active than duocarmycin SA (loss in activity)” value in series [1] was “approximately 5 fold”.

On to `COCCOCCOCCOCCOCCOc1cc2cc(C(=O)N3C[C@@H](CCl)c4c3cc(O)c3[nH]c(C(=O)OC)cc43)[nH]c2c(OCCOCCOCCOCCOCCOC)c1OCCOCCOCCOCCOCCOC` [10e], for which, in series [1] (Mus musculus, L1210, read-out: –log IC50, cell growth inhibition (converted)), the IC50 is 398 nM. This compound also had a Papp at 5 h, 1 μM in the series “PAMPA assay” of 0.11 ×10⁻⁶ cm/s. In “PAMPA assay” (relative to 2), the “fold reduction in permeability relative to 2” value worked out at 85 fold.

On to `COCCOc1c(OC)cc2cc(C(=O)N3C[C@@H](CCl)c4c3cc(O)c3[nH]c(C(=O)OC)cc43)[nH]c2c1OC` [15a], for which the “fold less active than duocarmycin SA (loss in activity)” value in series [1] is “approximately 2 fold”. The Papp at 5 h, 1 μM in the series “PAMPA assay” came to 4 ×10⁻⁶ cm/s.

For `COCCOCCOCCOCCOCCOc1c(OC)cc2cc(C(=O)N3C[C@@H](CCl)c4c3cc(O)c3[nH]c(C(=O)OC)cc43)[nH]c2c1OC` [15e], the “fold less active than duocarmycin SA (loss in activity)” value in series [1] is listed as 30 fold. The Papp at 5 h, 1 μM in the series “PAMPA assay” was found to be 2.1 ×10⁻⁶ cm/s.

For `COC(=O)c1cc2c([nH]1)C(=O)C=C1N(C(=O)c3cc4cc(OC)c(OC)c(OC)c4[nH]3)CC3CC123` (stereo not drawn) [compound 2, duocarmycin SA, reference compound], the Papp at 5 h, 1 μM in the series “PAMPA assay” was found to be 9.5 ×10⁻⁶ cm/s.
